# Data: US20220119354A1, “DIAMINO-SUBSTITUTED PYRIDINES AND PYRIMIDINES AS HERBICIDES” (FMC Corporation, priority 2019, published 2022)
# How the values were obtained:
# Assay type in all cases: in vivo
# [1] = test system: pigweed (Amaranthus retroflexus); assay: Test A postemergence, pigweed; details: 0 to 100 scale
# How it was run: (§1)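 Using a solvent/surfactant formulation, test chemicals were sprayed onto freshly seeded soil or onto 2–10 cm seedlings at the one- to two-leaf stage. Visual injury ratings on a 0–100 scale were made about 10 d later in the greenhouse.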
# [2] = test system: barnyardgrass (Echinochloa crus-galli); assay: Test B flooded paddy test, barnyardgrass; details: Flood, 250 g ai/ha, applied to paddy water, 2-leaf stage, visual evaluation after 13 to 15 d
# How it was run: (§2)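 Growth to two leaves preceded treatment. Flooding to 3 cm above soil surface, then water-applied compound; depth kept constant. Scored visually relative to controls after 13–15 d greenhouse; 100 means full control.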
# [3] = test system: foxtail, giant (Setaria faberii); assay: Test A postemergence, giant foxtail; details: 0 to 100 scale
# How it was run: as §1
# corn (Zea mays) = assay: Test A postemergence, corn; details: 0 to 100 scale
# How it was run: as §1
# kochia (Kochia scoparia) [4] = assay: Test A preemergence, kochia; details: 0 to 100 scale; for Kochia plant response rating: 0 is no effect, 100 is complete control
# How it was run: as §1
# kochia (Kochia scoparia) [5] = assay: Test A postemergence, kochia; details: 0 to 100 scale
# How it was run: as §1
# [6] = test system: ryegrass, Italian (Lolium multiflorum); assay: Test A postemergence, Italian ryegrass; details: 0 to 100 scale
# How it was run: as §1
# rice (Oryza sativa) = assay: Test B flooded paddy test, rice; details: Flood, 250 g ai/ha, applied to paddy water, 2-leaf stage, visual evaluation after 13 to 15 d
# How it was run: as §2
# [7] = test system: ragweed (common ragweed, Ambrosia elatior); assay: Test A preemergence, ragweed; details: 0 to 100 scale; for Ragweed plant response rating: 0 is no effect, 100 is complete control
# How it was run: as §1
# [8] = test system: foxtail, giant (Setaria faberii); assay: Test A preemergence, giant foxtail; details: 0 to 100 scale; for Foxtail, Giant plant response rating: 0 is no effect, 100 is complete control
# How it was run: as §1
# [9] = test system: sedge, umbrella (small-flower umbrella sedge, Cyperus difformis); assay: Test B flooded paddy test, umbrella sedge; details: Flood, 250 g ai/ha, applied to paddy water, 2-leaf stage, visual evaluation after 13 to 15 d
# How it was run: as §2
# [10] = test system: pigweed (Amaranthus retroflexus); assay: Test A preemergence, pigweed; details: 0 to 100 scale; for Pigweed plant response rating: 0 is no effect, 100 is complete control
# How it was run: as §1
# [11] = test system: ryegrass, Italian (Lolium multiflorum); assay: Test A preemergence, Italian ryegrass; details: 0 to 100 scale; for Ryegrass, Italian plant response rating: 0 is no effect, 100 is complete control
# How it was run: as §1
# [12] = test system: blackgrass (Alopecurus myosuroides); assay: Test A postemergence, blackgrass; details: 0 to 100 scale
# How it was run: as §1
# [13] = test system: galium (catchweed bedstraw, Galium aparine); assay: Test A postemergence, galium; details: 0 to 100 scale
# How it was run: as §1
# [14] = test system: wheat (Triticum aestivum); assay: Test A postemergence, wheat; details: 0 to 100 scale
# How it was run: as §1
# [15] = test system: barnyardgrass (Echinochloa crus-galli); assay: Test A postemergence, barnyardgrass; details: 0 to 100 scale, 0 no effect, 100 complete control
# How it was run: as §1
# [16] = test system: ragweed (common ragweed, Ambrosia elatior); assay: Test A postemergence, ragweed; details: 0 to 100 scale
# How it was run: as §1
# [17] = test system: barnyardgrass (Echinochloa crus-galli); assay: Test A preemergence, barnyardgrass; details: 0 to 100 scale; for Barnyardgrass plant response rating: 0 is no effect, 100 is complete control
# How it was run: as §1
# [18] = test system: ducksalad (Heteranthera limosa); assay: Test B flooded paddy test, ducksalad; details: Flood, 250 g ai/ha, applied to paddy water, 2-leaf stage, visual evaluation after 13 to 15 d
# How it was run: as §2
# [19] = 125 g ai/ha, 0 no effect, 100 complete control
# [20] = 500 g ai/ha, 0 no effect, 100 complete control
# [21] = 31 g ai/ha, 0 no effect, 100 complete control
Structure (SMILES),"Plant response rating, Pigweed [1, 19]","Plant response rating, Barnyardgrass (0 to 100 scale, 0 is no effect, 100 is complete control) [2]","Plant response rating, Foxtail, Giant [3, 19]","Plant response rating, Corn (corn (Zea mays); [19])",Kochia plant response rating (kochia (Kochia scoparia) [4]; 125 g ai/ha),"Plant response rating, Kochia (kochia (Kochia scoparia) [5]; [19])","Plant response rating, Ryegrass, Italian [6, 19]","Plant response rating, Rice (0 to 100 scale, 0 is no effect, 100 is complete control) (rice (Oryza sativa))",Ragweed plant response rating ([7]; 125 g ai/ha),"Foxtail, Giant plant response rating ([8]; 125 g ai/ha)","Plant response rating, Sedge, Umbrella (0 to 100 scale, 0 is no effect, 100 is complete control) [9]",Pigweed plant response rating ([10]; 125 g ai/ha),"Ryegrass, Italian plant response rating ([11]; 125 g ai/ha)","Plant response rating, Blackgrass [12, 19]","Plant response rating, Galium [13, 19]","Plant response rating, Wheat [14, 19]","Plant response rating, Barnyardgrass ([15]; 125 g ai/ha)","Plant response rating, Ragweed [16, 19]",Barnyardgrass plant response rating ([17]; 125 g ai/ha),"Plant response rating, Ducksalad (0 to 100 scale, 0 is no effect, 100 is complete control) [18]",other results
C[C@@H](Nc1nc(N)c(C(F)(F)F)c(C(F)(F)F)n1)C1Cc2ccccc2C1 [Compound 67],20,0,0,0,0,50,0,0,0,0,0,30,0,0,20,0,0,0,0,0,"Plant response rating, Pigweed [1, 20]: 60; Plant response rating, Foxtail, Giant [3, 20]: 0; Plant response rating, Corn (corn (Zea mays); [20]): 0; Kochia plant response rating (kochia (Kochia scoparia) [4]; 500 g ai/ha): 90; Plant response rating, Kochia (kochia (Kochia scoparia) [5]; [20]): 70; Plant response rating, Ryegrass, Italian [6, 20]: 0; Ragweed plant response rating ([7]; 500 g ai/ha): 0; Foxtail, Giant plant response rating ([8]; 500 g ai/ha): 0; Pigweed plant response rating ([10]; 500 g ai/ha): 90; Ryegrass, Italian plant response rating ([11]; 500 g ai/ha): 0; Plant response rating, Blackgrass [12, 20]: 0; Plant response rating, Galium [13, 20]: 40; Plant response rating, Wheat [14, 20]: 0; Plant response rating, Barnyardgrass ([15]; 500 g ai/ha): 0; Plant response rating, Ragweed [16, 20]: 0; Barnyardgrass plant response rating ([17]; 500 g ai/ha): 0"
CC[C@@H](Nc1ncc(C(F)(F)F)c(N)n1)c1cc2ccc(F)cc2o1 [Compound 63],100,45,20,0,80,80,0,0,50,60,80,90,40,0,50,0,30,30,70,75,"Plant response rating, Pigweed [1, 20]: 100; Plant response rating, Foxtail, Giant [3, 20]: 90; Plant response rating, Corn (corn (Zea mays); [20]): 10; Kochia plant response rating (kochia (Kochia scoparia) [4]; 500 g ai/ha): 100; Plant response rating, Kochia (kochia (Kochia scoparia) [5]; [20]): 90; Plant response rating, Ryegrass, Italian [6, 20]: 0; Ragweed plant response rating ([7]; 500 g ai/ha): 100; Foxtail, Giant plant response rating ([8]; 500 g ai/ha): 100; Pigweed plant response rating ([10]; 500 g ai/ha): 100; Ryegrass, Italian plant response rating ([11]; 500 g ai/ha): 90; Plant response rating, Blackgrass [12, 20]: 20; Plant response rating, Galium [13, 20]: 90; Plant response rating, Wheat [14, 20]: 0; Plant response rating, Barnyardgrass ([15]; 500 g ai/ha): 60; Plant response rating, Ragweed [16, 20]: 60; Barnyardgrass plant response rating ([17]; 500 g ai/ha): 100"
C[C@H](COc1ccccc1)Nc1ncc(C(F)(F)F)c(N)n1 [Compound 26],,0,,,,,,0,,,0,,,,,,,,,0,"Plant response rating, Pigweed ([1]; 1000 g ai/ha): 50; Plant response rating, Foxtail, Giant ([3]; 1000 g ai/ha): 0; Plant response rating, Corn (corn (Zea mays); 1000 g ai/ha): 10; Plant response rating, Kochia (kochia (Kochia scoparia) [4]; 1000 g ai/ha): 0; Plant response rating, Kochia (kochia (Kochia scoparia) [5]; 1000 g ai/ha): 30; Plant response rating, Ryegrass, Italian ([6]; 1000 g ai/ha): 10; Plant response rating, Ragweed ([7]; 1000 g ai/ha): 100; Plant response rating, Foxtail, Giant ([8]; 1000 g ai/ha): 50; Plant response rating, Pigweed ([10]; 1000 g ai/ha): 80; Plant response rating, Ryegrass, Italian ([11]; 1000 g ai/ha): 20; Plant response rating, Blackgrass ([12]; 1000 g ai/ha): 0; Plant response rating, Galium ([13]; 1000 g ai/ha): 60; Plant response rating, Wheat ([14]; 1000 g ai/ha): 0; Plant response rating, Barnyardgrass ([15]; 1000 g ai/ha): 0; Plant response rating, Ragweed ([16]; 1000 g ai/ha): 30; Plant response rating, Barnyardgrass ([17]; 1000 g ai/ha): 10"
C[C@@H](Nc1ncc([S+](C)[O-])c(N)n1)c1cc2ccccc2s1 (some centres unmarked) [Compound 110],80,20,0,10,0,10,0,15,80,0,90,30,0,0,70,0,10,30,0,60,"Plant response rating, Pigweed [1, 21]: 60; Plant response rating, Foxtail, Giant [3, 21]: 0; Plant response rating, Corn (corn (Zea mays); [21]): 0; Kochia plant response rating (kochia (Kochia scoparia) [4]; 31 g ai/ha): 0; Plant response rating, Kochia (kochia (Kochia scoparia) [5]; [21]): 0; Plant response rating, Ryegrass, Italian [6, 21]: 0; Ragweed plant response rating ([7]; 31 g ai/ha): 40; Foxtail, Giant plant response rating ([8]; 31 g ai/ha): 0; Pigweed plant response rating ([10]; 31 g ai/ha): 0; Ryegrass, Italian plant response rating ([11]; 31 g ai/ha): 0; Plant response rating, Blackgrass [12, 21]: 0; Plant response rating, Galium [13, 21]: 30; Plant response rating, Wheat [14, 21]: 0; Plant response rating, Barnyardgrass ([15]; 31 g ai/ha): 0; Plant response rating, Ragweed [16, 21]: 0; Barnyardgrass plant response rating ([17]; 31 g ai/ha): 0"
